Key:
MRSA ATCC 43300 = assay: MIC, CO-ADD broth microdilution, MRSA; format: cell-based, methicillin-resistant S. aureus; conditions: Staphylococcus aureus; MRSA ATCC 43300; mean (n = 2); read-out: MIC MRSA
Description: The susceptibility of bacterial strains S. aureus (ATCC 25923), E. coli (ATCC 25922), and P. aeruginosa (ATCC 27853 or PAO1) to antibiotics and compounds was determined using reported protocols. Additional antimicrobial evaluation against MRSA (ATCC 43300), Klebsiella pneumoniae (ATCC 700603), A. baumannii (ATCC 19606), Candida albicans (ATCC 90028), and Cryptococcus neoformans (ATCC 208821) was undertaken at the Community for Open Antimicrobial Drug Discovery at The University of Queensland (Australia) according to their standard protocols as reported previously. […]
2.3. Antimicrobial Assays
The susceptibility of bacterial strains S. aureus (ATCC 25923), E. coli (ATCC 25922), and P. […]
baumannii (ATCC 19606), Candida albicans (ATCC 90028), and Cryptococcus neoformans (ATCC 208821) was undertaken at the Community for Open Antimicrobial Drug Discovery at The University of Queensland (Australia) according to their standard protocols as reported previously. For antimicrobial assays, the tested strains were cultured in either Luria broth (LB) (In Vitro Technologies, USB75852), nutrient broth (NB) (Becton Dickson, 234000), or MHB at 37 °C overnight. A sample of culture was then diluted 40-fold in fresh MHB and incubated at 37 °C for 1.5−2 h. The compounds were serially diluted 2-fold across the wells of 96-well plates (Corning 3641, non-binding surface), with compound concentrations ranging from 0.015 to 64 µg/ mL, and plated in duplicate. The resultant mid-log phase cultures were diluted to the final concentration of 1 × 10^6 CFU/mL; then, 50 µL was added to each well of the compound-containing plates, giving a final compound concentration range of 0.008 to 32 µg/mL and a cell density of 5 × 10^5 CFU/mL. All plates were then covered and incubated at 37 °C for 18 h. Resazurin was added at 0.001% final concentration to each well and incubated for 2 h before MICs […]
For C. neoformans, resazurin was added at 0.006% final concentration to each well and incubated for a further 3 h before MICs were determined by measuring […]
Colistin and vancomycin were used as positive bacterial inhibitor standards for Gram-negative and Gram-positive bacteria, respectively. Fluconazole was used as a positive fungal inhibitor standard for C. albicans and C. neoformans. The antibiotics were provided in […], with 3 above and 3 below its MIC value, and plated into the first 8 wells of column 23 of the 384-well NBS plates. The quality control (QC) of the assays was determined by the antimicrobial controls and the Z'-factor (using positive and negative controls). Each plate was deemed to fulfil the quality criteria (pass QC) if the Z'- […]
inhibition at their highest concentration, and no growth inhibition at their lowest concentration.
2.4. Determination of the MICs of Antibiotics in the Presence of Synergizing Compounds

E. coli ATCC 25922 = assay: Antibiotic enhancement of erythromycin; format: cell-based; conditions: for Erythro/E.c.: fold change, ratio between intrinsic MIC of test compound and combination MIC: erythromycin at 2.7 µM; for Erythro/E.c.: concentration required to restore erythromycin activity: erythromycin at 2.7 µM (2 µg/mL)
Description: [Worded in the source for another target; used here, by the source, with some conditions changed.] Antibiotic restoring enhancer concentrations were determined using reported protocols (see Supplementary File).
Briefly, restoring enhancer concentrations were determined with an inoculum of 5x10^5 CFU in 200 µL of MHB containing two-fold serial dilutions of each derivative in the presence of doxycycline at 4.5 […]
The lowest concentration of the polyamine
These measurements were independently repeated in triplicate.
Outer membrane permeabilization was measured using nitrocefin as a chromogenic substrate of periplasmic β-lactamase. Ten milliliters of MH broth were inoculated with 0.1 mL of an overnight culture of PAO1 bacteria and grown at 37°C until the OD600 reached 0.5. The remaining steps were performed at room temperature. Cells were recovered by centrifugation (4000 rpm for 20 min) and washed once in 20 mM potassium phosphate buffer (pH 7.2) containing MgCl2 (1 mM). After a second centrifugation, the pellet was resuspended and adjusted to OD600 of 0.5. Then, 50 µL of the desired compound was added to 100 µL of the cell suspension to obtain a final concentration varying from 3.9 µM to 250 µM. Fifty microliters of nitrocefin were then added to obtain a final concentration of 50 µg/mL. Nitrocefin hydrolysis was monitored spectrophotometrically by measuring the increase in absorbance at 490 nm. Assays were performed in 96-well plates using a M200 Pro Tecan […]
HEK293 cells were counted manually in a Neubauer hemocytometer and plated at a density of 5,000 cells/well into each well of the 384-well plates containing the 25x (2 µL) concentrated compounds [26,27]. The medium used was Dulbecco's modified Eagle’s medium (DMEM), supplemented with 10% fetal bovine serum (FBS). Cells were incubated together with the compounds for 20 h at 37 °C, 5% CO2.
To measure cytotoxicity, 5 µL (equals 100 µM final) of resazurin was added to each well after incubation and incubated for further 3 h at 37 °C with 5% CO2. After the final incubation, fluorescence intensity […]
reader. CC50 values (concentration at 50% cytotoxicity) were calculated by normalizing the fluorescence readout, with 74 µg/mL tamoxifen as negative control (0%) and normal cell growth as positive control (100%). The concentration-dependent percentage cytotoxicity was fitted to a dose–response function (using Pipeline Pilot) and CC50 values were determined.
Human whole blood was washed three times with three volumes of 0.9% NaCl and then resuspended in the same solution to a concentration of 0.5 x 10^8 cells/mL, as determined by the manual cell count in a Neubauer hemocytometer. The washed cells were then added to the 384-well compound-containing plates for a final volume of 50 µL. After a 10 min shake on a plate shaker, the plates were then incubated for 1 h at 37 °C. After incubation, the plates were centrifuged at 1,000g for 10 min to pellet cells and debris; 25 µL of the supernatant was then transferred to a polystyrene 384-well assay plate. Hemolysis was determined by measuring the supernatant absorbance at […] (OD405). The absorbance was measured using a Tecan M1000 Pro monochromator plate reader. HC10 and HC50 (concentration at 10% and 50% hemolysis, respectively) were calculated by curve fitting the inhibition values vs. log (concentration) using a sigmoidal dose–response function with variable fitting values for the top, bottom, and slope.
2.8. Real-time growth curves
Solutions of the compound at concentrations of 2, 4, and 16 µg/mL were tested each in triplicate against S. aureus ATCC 25923 [26]. Typically, in a 96-well plate were placed 10 µL of 40, 80, and 320 µg/mL stock solutions of compound, as well as 190 µL of a 5 x 10^5 CFU/mL of the selected bacterial suspension in brain heart infusion (BHI) broth. Positive controls containing only 200 µL of a 5 x 10^5 CFU/mL of bacterial suspension in BHI and negative controls containing only 200 µL of BHI broth were added. The plate was incubated at 37°C in a TECAN Spark Reader (Roche Diagnostic) and real-time […]

MIC (MRSA ATCC 43300) | Erythro/E.c.: fold change, ratio between intrinsic MIC of test compound and combination MIC (E. coli ATCC 25922) | SMILES | Erythro/E.c.: concentration required to restore erythromycin activity (E. coli ATCC 25922)
≤ 0.51 µM | 0.5 | C=C[C@]1(C)C[C@@H](OC(=O)CSCCN(CC)CC)[C@]2(C)[C@H](C)CC[C@]3(CCC(=O)[C@H]32)[C@@H](C)[C@@H]1O [Compound 2, Tiamulin, reference compound] | > 405 µM
23.2 µM | 2 | C=C[C@]1(C)C[C@@H](OC(=O)CNCCCNCCCCNCCCNCC(=O)O[C@@H]2C[C@@](C)(C=C)[C@@H](O)[C@H](C)[C@]34CCC(=O)[C@H]3[C@@]2(C)[C@H](C)CC4)[C@]2(C)[C@H](C)CC[C@]3(CCC(=O)[C@H]32)[C@@H](C)[C@@H]1O.O=C(O)C(F)(F)F.O=C(O)C(F)(F)F.O=C(O)C(F)(F)F.O=C(O)C(F)(F)F [Compound 9a, N^1,N^1′-(Butane-1,4-diyl)bis(N^3-(2-(((3aR,4R,5R,7S,8S,9R,9aS,12R)-8-hydroxy-4,7,9,12-tetramethyl-3-oxo-7-vinyldecahydro-4,9a-propanocyclopenta [8]annulen-5-yl)oxy)-2-oxoethyl)propane-1,3-diaminium) 2,2,2-trifluoroacetate] | 
≤ 0.18 µM | 1 | C=C[C@]1(C)C[C@@H](OC(=O)CNCCCNCCCCCCNCCCNCC(=O)O[C@@H]2C[C@@](C)(C=C)[C@@H](O)[C@H](C)[C@]34CCC(=O)[C@H]3[C@@]2(C)[C@H](C)CC4)[C@]2(C)[C@H](C)CC[C@]3(CCC(=O)[C@H]32)[C@@H](C)[C@@H]1O.O=C(O)C(F)(F)F.O=C(O)C(F)(F)F.O=C(O)C(F)(F)F.O=C(O)C(F)(F)F [Compound 9b, N^1,N^1′-(Hexane-1,6-diyl)bis(N^3-(2-(((3aR,4R,5R,7S,8S,9R,9aS,12R)-8-hydroxy-4,7,9,12-tetramethyl-3-oxo-7-vinyldecahydro-4,9a-propanocyclopenta [8]annulen-5-yl)oxy)-2-oxoethyl)propane-1,3-diaminium) 2,2,2-trifluoroacetate] | 8.88 µM
≤ 0.18 µM | 2 | C=C[C@]1(C)C[C@@H](OC(=O)CNCCCNCCCCCCCNCCCNCC(=O)O[C@@H]2C[C@@](C)(C=C)[C@@H](O)[C@H](C)[C@]34CCC(=O)[C@H]3[C@@]2(C)[C@H](C)CC4)[C@]2(C)[C@H](C)CC[C@]3(CCC(=O)[C@H]32)[C@@H](C)[C@@H]1O.O=C(O)C(F)(F)F.O=C(O)C(F)(F)F.O=C(O)C(F)(F)F.O=C(O)C(F)(F)F [Compound 9c, N^1,N^1′-(Heptane-1,7-diyl)bis(N^3-(2-(((3aR,4R,5R,7S,8S,9R,9aS,12R)-8-hydroxy-4,7,9,12-tetramethyl-3-oxo-7-vinyldecahydro-4,9a-propanocyclopenta [8]annulen-5-yl)oxy)-2-oxoethyl)propane-1,3-diaminium) 2,2,2-trifluoroacetate] | 
5.57 µM | 2 | C=C[C@]1(C)C[C@@H](OC(=O)CNCCCNCCCCCCCCNCCCNCC(=O)O[C@@H]2C[C@@](C)(C=C)[C@@H](O)[C@H](C)[C@]34CCC(=O)[C@H]3[C@@]2(C)[C@H](C)CC4)[C@]2(C)[C@H](C)CC[C@]3(CCC(=O)[C@H]32)[C@@H](C)[C@@H]1O.O=C(O)C(F)(F)F.O=C(O)C(F)(F)F.O=C(O)C(F)(F)F.O=C(O)C(F)(F)F [Compound 9d, N^1,N^1′-(Octane-1,8-diyl)bis(N^3-(2-(((3aR,4R,5R,7S,8S,9R,9aS,12R)-8-hydroxy-4,7,9,12-tetramethyl-3-oxo-7-vinyldecahydro-4,9a-propanocyclopenta [8]annulen-5-yl)oxy)-2-oxoethyl)propane-1,3-diaminium) 2,2,2-trifluoroacetate] | 
≤ 0.17 µM | 0.5 | C=C[C@]1(C)C[C@@H](OC(=O)CNCCCNCCCCCCCCCCNCCCNCC(=O)O[C@@H]2C[C@@](C)(C=C)[C@@H](O)[C@H](C)[C@]34CCC(=O)[C@H]3[C@@]2(C)[C@H](C)CC4)[C@]2(C)[C@H](C)CC[C@]3(CCC(=O)[C@H]32)[C@@H](C)[C@@H]1O.O=C(O)C(F)(F)F.O=C(O)C(F)(F)F.O=C(O)C(F)(F)F.O=C(O)C(F)(F)F [Compound 9e, N^1,N^1′-(Decane-1,10-diyl)bis(N^3-(2-(((3aR,4R,5R,7S,8S,9R,9aS,12R)-8-hydroxy-4,7,9,12-tetramethyl-3-oxo-7-vinyldecahydro-4,9a-propanocyclopenta [8]annulen-5-yl)oxy)-2-oxoethyl)propane-1,3-diaminium) 2,2,2-trifluoroacetate] | 8.54 µM
≤ 0.17 µM | 0.5 | C=C[C@]1(C)C[C@@H](OC(=O)CNCCCNCCCCCCCCCCCCNCCCNCC(=O)O[C@@H]2C[C@@](C)(C=C)[C@@H](O)[C@H](C)[C@]34CCC(=O)[C@H]3[C@@]2(C)[C@H](C)CC4)[C@]2(C)[C@H](C)CC[C@]3(CCC(=O)[C@H]32)[C@@H](C)[C@@H]1O.O=C(O)C(F)(F)F.O=C(O)C(F)(F)F.O=C(O)C(F)(F)F.O=C(O)C(F)(F)F [Compound 9f, N^1,N^1′-(Dodecane-1,12-diyl)bis(N^3-(2-(((3aR,4R,5R,7S,8S,9R,9aS,12R)-8-hydroxy-4,7,9,12-tetramethyl-3-oxo-7-vinyldecahydro-4,9a-propanocyclopenta [8]annulen-5-yl)oxy)-2-oxoethyl)propane-1,3-diaminium) 2,2,2-trifluoroacetate] | 8.38 µM

Source: PMC10673369, “Preliminary SAR of Novel Pleuromutilin–Polyamine Conjugates” (Microorganisms, 2023)
